Reference: patent publication US20100172848A1, “SKIN AND SURFACE DISINFECTANT COMPOSITIONS CONTAINING BOTANICALS” (The Trustees Of Columbia University In the City of New York, priority 2008, published 2010)

How the values were obtained:
S. aureus [1] = assay: Five-minute kill test of solutions in 10% SDA40-B alcohol and water, colony counts on TSA; type: cell-based; conditions: 5 minutes contact
Method: Various concentrations of basil oil and acetic, lactic, and citric acids, separately and in combination, were prepared in 10 percent SDA40-B alcohol and water, and adjusted to 100 percent. Except for citric acid, which was added by weight, all other ingredients were measured by volume. 0.9 ml of each solution were dispensed in sterile culture tubes, in triplicate, and 0.1 ml of a 10^7 cfu/ml S. aureus culture was added to the tubes, vortexed, and then, five minutes later, 9.0 ml of drug inactivating medium was added to each tube. Serial dilutions were made with the drug inactivating medium. 0.5 ml of the dilutions were plated on trypticase soy agar (“TSA”) plates. As a control, water containing 10 percent SDA40-B alcohol was processed in parallel. The plates were incubated at 37° C. for 24-48 hours and then the colony counts were determined.
The same methodology was used to test the antimicrobial activity of combinations of citric acid with other essential oils.
Next, the same general protocol was used to test the efficacy of basil, cinammon and citronella oils against a variety of organisms, namely E. coli, P. aeruginosa, MRSA, C. albicans, and S. aureus.
Various concentrations of cinnamon leaf oil and citric acid were dissolved in SDA 40-B alcohol (10%) and water, and adjusted to 100 percent. Except for citric acid, which was added by weight, all other ingredients were measured by volume. 0.9 ml of each solution were dispensed in sterile culture tubes, in triplicate, and 0.1 ml of 10^7 cfu/ml of S. aureus culture was added to the tubes, vortexed, and then, five minutes later, 9.0 ml of drug inactivating medium was added to each tube. Serial dilutions were made with the drug inactivating medium. 0.5 ml of the dilutions were plated on trypticase soy agar (“TSA”) plates. As a control, water containing 10% percent SDA40-B alcohol was processed in parallel. The plates were incubated at 37° C. for 24-48 hours and then the colony counts were determined.
The following experiments were performed to evaluate the antibacterial activity of LG and Citric acid dissolved in alcohol, where the test organism used was S. aureus. Various amounts of LG oil and Citric acid were dissolved in SDA40-B alcohol, and then water was added to result in the EO concentration shown and an alcohol concentration of 10 percent. 0.9 ml of each solution were dispensed in sterile culture tubes, in triplicate, and 0.1 ml of a 10^7 cfulml S. aureus culture was added to the tubes, vortexed, and then, five minutes later, 9.0 ml of drug inactivating medium was added to each tube. Serial dilutions were made with drug inactivating medium. 0.5 ml of the dilutions were plated on trypticase soy agar (“TSA”) plates. As a control, water containing 10 percent SDA40-B alcohol was processed in parallel. The plates were incubated at 37° C. for 24-48 hours and then the colony counts were determined.

S. aureus [2] = assay: Soap rapid antimicrobial activity (30 second kill) with bovine serum; type: cell-based
Method: The antimicrobial activity of the above soap was tested in parallel with commercial Softsoap® containing triclosan (Softsoap Antibacterial; Colgate-Palmolive). 0.1 ml of a 10^8 cfu/ml culture of each microbe tested was mixed with 0.1 ml of bovine serum and placed in a sterile culture tube. 0.8 ml of the test soap formulation was added to the tube and vortexed for 30 seconds. Then 9.0 ml DNB was added to neutralize the activity of the soap. The tube was then vortexed and serially diluted with DNB. 0.5 ml of the diluted solution was plated on TSA plates. The same soap base lacking cinnamon oil, citric acid, and orange oil, with phosphate buffered saline mixed with the culture, were used as the controls.
The antimicrobial activity of the above soap was tested in parallel with commercial Dial® Antibacterial Hand Soap) containing triclosan. 0.1 ml of a 10^8 cfu/ml culture of each microbe tested was mixed with 0.1 ml of bovine serum and placed in a sterile culture tube. 0.8 ml of the test soap formulation was added to the tube and vortexed for 30 seconds. Then 9.0 ml DNB was added to neutralize the activity of the soap. The tube was then vortexed and serially diluted with DNB. 0.5 ml of the diluted solution was plated on TSA plates. […]
(§1) A mixture of 0.1 ml of 10^7 cfu/ml of S. aureus culture and 0.1 ml of bovine serum were placed in a sterile culture tube. […] 0.5 ml of the diluted solution was plated on trypticase soy agar plates, incubated at 37° C. for 24-48 hrs and the colony counts were determined. […]
as §1
A mixture of 0.1 ml of 10^8 cfu/ml of S. aureus culture and 0.1 ml of bovine serum were placed in a sterile culture tube. […] 0.5 ml of the diluted solution was plated on trypticase soy agar plates, incubated at 37° C. for 24-48 hrs and the colony counts were determined.

[3] = 10 percent SDA40-B alcohol, control counts 1 × 10^6 to 5 × 10^6 (Table 67)
[4] = 10 percent SDA40-B alcohol, control counts 1 × 10^6 to 5 × 10^6 (Table 66)
[5] = SDA 40-B alcohol (10%) and water (Table 71)

CC(C)=CCCC(C)=CCCC(C)=CCO [0.25% Farnesol, Farnesol]
Log 10 reduction (S. aureus [1]; [3]): 0 log10

CC(=O)O [1% Acetic acid (AA), Acetic acid]
Log 10 reduction (S. aureus [1]; [4]): 0.2 log10

O=C(O)CC(O)(CC(=O)O)C(=O)O [1% Citric Acid (CA), Citric Acid]
Log 10 reduction (S. aureus [1]; [4]): 0.1 log10 | Log 10 reduction (S. aureus [1]; [3]): 0.1 log10 | Log10 reduction from control (S. aureus [1]; 10 percent alcohol, control counts 1 × 10^6 to 5 × 10^6 (Table 79)): 0.3 log10 | Log 10 reduction (S. aureus [1]; SDA 40-B alcohol (10%) and water (Table 71), listed as Citric Acid 1.0%): 0.30 log10

CC(O)C(=O)O (centres unmarked) [1% Lactic acid (LA), Lactic acid]
Log 10 reduction (S. aureus [1]; [4]): 2.3 log10

CCCCCCCCC(O)CO (centres unmarked) [1,2 decanediol (0.3%)]
Log10 reduction from control (S. aureus [2]; alkanediol 0.3% w/w where present, control counts 2 × 10^8-5 × 10^8): 0.6 log10

CCCCCCCCC(O)CO (centres unmarked) [1,2 decanediol(0.5%)]
Log10 reduction from control (S. aureus [2]; alkanediol 0.5% w/w where present, soap pH 4.5-4.6, control counts 2 × 10^8-5 × 10^8): 1.4 log10

O=C(O)CC(O)(CC(=O)O)C(=O)O [1.0 citric acid]
Log10 reduction from control (S. aureus [2]; compounds (% w/w) in soft soap lacking triclosan, PBS control counts 7 × 10^7-1 × 10^8): 1.3 log10

O=C(O)CC(O)(CC(=O)O)C(=O)O [Citric Acid 0.5%, Citric Acid]
Log 10 reduction (S. aureus [1]; [5]): 0.20 log10

O=C(O)CC(O)(CC(=O)O)C(=O)O [Citric Acid 0.25%, Citric Acid]
Log 10 reduction (S. aureus [1]; [5]): 0.08 log10

O=C(O)CC(O)(CC(=O)O)C(=O)O [Citric Acid 0.125%, Citric Acid]
Log 10 reduction (S. aureus [1]; [5]): 0.02 log10

O=C(O)CC(O)(CC(=O)O)C(=O)O [Citric Acid 2%, Citric Acid]
Log 10 reduction (S. aureus [1]; [5]): 0.32 log10
